Data from PubChem BioAssay AID330 (DTP/NCI, 2004).
Where “and” joins values, the source holds several entries; their conditions need not be identical. Identical values can stand only once. Toxic doses and inconclusive results are not listed.

System: P388 leukemia ip, CD2F1 mice, survival T/C
Assay: NCI In Vivo Anticancer Drug Screen. Data for tumor model P388 Leukemia (intraperitoneal) in CD2F1 (CDF1) mice
Conditions: endpoint: median survival time, higher = longer survival
Procedure, shortened: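 Mice carrying the transplanted tumor received test compound or vehicle. Survival was recorded in each group, and the value is the treated-group measurement divided by that of the vehicle-treated control group.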

[1] = dose: 60.0 mg/kg/injection, schedule: Q01DX005 (ip), vehicle: saline with Tween-80
[2] = dose: 120.0 mg/kg/injection, schedule: Q01DX005 (ip), vehicle: saline with Tween-80
[3] = dose: 240.0 mg/kg/injection, schedule: Q01DX005 (ip), vehicle: saline with Tween-80
[4] = dose: 50.0 mg/kg/injection, schedule: Q01DX005 (ip), vehicle: Klucel (hydroxypropylcellulose) (HPC)
[5] = dose: 100.0 mg/kg/injection, schedule: Q01DX005 (ip), vehicle: Klucel (hydroxypropylcellulose) (HPC)
[6] = dose: 50.0 mg/kg/injection, schedule: Q01DX009 (ip), vehicle: Klucel (hydroxypropylcellulose) (HPC)
[7] = dose: 100.0 mg/kg/injection, schedule: Q01DX009 (ip), vehicle: Klucel (hydroxypropylcellulose) (HPC)
[8] = dose: 50.0 mg/kg/injection, schedule: Q01DX009 (ip), vehicle: saline with Tween-80
[9] = dose: 100.0 mg/kg/injection, schedule: Q01DX009 (ip), vehicle: saline with Tween-80
[10] = dose: 25.0 mg/kg/injection, schedule: Q01DX009 (ip), vehicle: saline with Tween-80

`CCC[CH2][Sn]1([CH2]CCC)[O]OC2(CCCCC2)[O]1` was tested, and the T/C (dose: 1.25 mg/kg/injection, schedule: Q01DX009 (ip), vehicle: saline with Tween-80) was 113 % of control and the T/C (dose: 2.5 mg/kg/injection, schedule: Q01DX009 (ip), vehicle: saline with Tween-80) was 109 % of control.

With `Cc1cc(=NC(C)(C)C)nc2c3ccccc3c(Cl)cn12` the T/C (dose: 1.56 mg/kg/injection, schedule: Q01DX005 (ip), vehicle: saline with Tween-80) was 100 % of control, the T/C (dose: 3.13 mg/kg/injection, schedule: Q01DX005 (ip), vehicle: saline with Tween-80) was 100 % of control and the T/C (dose: 6.25 mg/kg/injection, schedule: Q01DX005 (ip), vehicle: saline with Tween-80) was 103 % of control and 98 % of control.

`O=C1OCCCOC(=O)c2cc(ccc2O)OCC#CC#CCOc2ccc(O)c1c2` was tested, and the T/C [1] was 92 % of control, the T/C [2] was 97 % of control and the T/C [3] was 97 % of control.

For `C1CN1CN1CC1`, the T/C [4] was 102 % of control and the T/C [5] was 99 % of control.

For `CCC(C)OC(=S)SSC(=S)OC(C)CC` (stereo not given), the T/C (dose: 25.0 mg/kg/injection, schedule: Q01DX009 (ip), vehicle: suspension in saline) was 105 % of control, the T/C (dose: 50.0 mg/kg/injection, schedule: Q01DX009 (ip), vehicle: suspension in saline) was 96 % of control and the T/C (dose: 100.0 mg/kg/injection, schedule: Q01DX009 (ip), vehicle: suspension in saline) was 98 % of control. For the same compound, the T/C (dose: 200.0 mg/kg/injection, schedule: Q01DX009 (ip), vehicle: suspension in saline) was 109 % of control.

`COc1ccccc1C1c2cc3c(cc2OC(C)(OC)C1C)OCO3` (stereo not given) was tested, and the T/C [1] was 93 % of control, the T/C [2] was 90 % of control and the T/C [3] was 92 % of control.

In the case of `CCOC(=O)CNC(=O)NC(Cc1ccccc1)C(=O)OCC` (stereo not given), the T/C (dose: 50.0 mg/kg/injection, schedule: Q01DX005 (ip), vehicle: saline with Tween-80) was 107 % of control and the T/C (dose: 100.0 mg/kg/injection, schedule: Q01DX005 (ip), vehicle: saline with Tween-80) was 97 % of control.

With `CCN(CC)CCNc1c2ccc(Cl)cc2nc2ccc(OC)nc12` the T/C [6] was 114 % of control, the T/C [7] was 111 % of control and the T/C (dose: 200.0 mg/kg/injection, schedule: Q01DX009 (ip), vehicle: Klucel (hydroxypropylcellulose) (HPC)) was 117 % of control.

For `O=C(Nc1cccc(Cl)c1Cl)c1cc(/C=C/c2ccc([N+](=O)[O-])cc2)on1`, the T/C (dose: 30.0 mg/kg/injection, schedule: Q01DX005 (ip), vehicle: saline with Tween-80) was 95 % of control, the T/C [1] was 91 % of control and 96 % of control and the T/C [2] was 87 % of control and 95 % of control. The T/C [3] was 97 % of control.

With `CSc1nnc2nc[nH]n12` the T/C (dose: 100.0 mg/kg/injection, schedule: Q01DX001 (ip), vehicle: saline with Tween-80) was 102 % of control and the T/C (dose: 200.0 mg/kg/injection, schedule: Q01DX001 (ip), vehicle: saline with Tween-80) was 98 % of control.

With `CS(=O)(=O)Nc1ccc(Nc2c3ccccc3nc3cc(Cl)ccc23)cc1` the T/C (dose: 100.0 mg/kg/injection, schedule: Q04DX003 (ip), vehicle: saline) was 181 % of control and the T/C (dose: 200.0 mg/kg/injection, schedule: Q04DX003 (ip), vehicle: saline) was 240 % of control.

`CCN(CC)Cc1c2c(O)c3c(O)c(C)c4c(c3c1O)C(=O)C(C)(O/C=C/C(OC)C(C)C(OC(C)=O)C(C)C(O)C(C)C(O)C(C)/C=C/C=C(\C)C(=O)N2)O4` (stereo not given) was tested, and the T/C (dose: 12.5 mg/kg/injection, schedule: Q01DX009 (ip), vehicle: Klucel (hydroxypropylcellulose) (HPC)) was 115 % of control, the T/C (dose: 25.0 mg/kg/injection, schedule: Q01DX009 (ip), vehicle: Klucel (hydroxypropylcellulose) (HPC)) was 93 % of control and the T/C [4] was 103 % of control. For the same compound, the T/C [6] was 91 % of control, the T/C [8] was 110 % of control and the T/C [5] was 106 % of control. For the same compound, the T/C [7] was 86 % of control, the T/C [9] was 90 % of control and the T/C (dose: 200.0 mg/kg/injection, schedule: Q01DX005 (ip), vehicle: Klucel (hydroxypropylcellulose) (HPC)) was 94 % of control. The T/C (dose: 200.0 mg/kg/injection, schedule: Q01DX009 (ip), vehicle: saline with Tween-80) was 97 % of control and the T/C (dose: 400.0 mg/kg/injection, schedule: Q01DX009 (ip), vehicle: Klucel (hydroxypropylcellulose) (HPC)) was 111 % of control.

For `O=S(CF)c1ccccc1` (stereo not given), the T/C (dose: 75.0 mg/kg/injection, schedule: Q04DX003 (ip), vehicle: saline) was 91 % of control, the T/C (dose: 150.0 mg/kg/injection, schedule: Q04DX003 (ip), vehicle: saline) was 101 % of control and the T/C (dose: 300.0 mg/kg/injection, schedule: Q04DX003 (ip), vehicle: saline) was 107 % of control.

In the case of `CC1(c2ccccc2)CCC(=O)NC1=O` (stereo not given), the T/C [1] was 102 % of control, the T/C [2] was 101 % of control and the T/C [3] was 106 % of control.

In the case of `OCc1ccccc1`, the T/C (dose: 0.12 % in 0.5 ml injection vol, schedule: Q01DX009 (ip), vehicle: water) was 94 % of control, the T/C (dose: 0.25 % in 0.5 ml injection vol, schedule: Q01DX009 (ip), vehicle: water) was 94 % of control and the T/C (dose: 0.5 % in 0.5 ml injection vol, schedule: Q01DX009 (ip), vehicle: water) was 100 % of control and 103 % of control. For the same compound, the T/C (dose: 1.0 % in 0.5 ml injection vol, schedule: Q01DX009 (ip), vehicle: water) was 95 % of control and 98 % of control and the T/C (dose: 2.0 % in 0.5 ml injection vol, schedule: Q01DX009 (ip), vehicle: water) was 98 % of control.

In the case of `O=C(/C=C/c1cccs1)c1ccc(O)c(C(=O)O)c1`, the T/C [10] was 96 % of control, the T/C [8] was 105 % of control and the T/C [9] was 103 % of control.

In the case of `CCOC(=O)NC1=C(N2CC2)C(=O)C(NC(=O)OCC)=C(N2CC2)C1=O`, the T/C (dose: 0.5 mg/kg/injection, schedule: Q01DX005 (iv), vehicle: saline) was 110 % of control, the T/C (dose: 2.59 mg/kg/injection, schedule: Q04DX002 (ip), vehicle: saline) was 160 % of control and the T/C (dose: 3.0 mg/kg/injection, schedule: Q01DX005 (ip), vehicle: saline with Tween-80) was 216 % of control. The T/C (dose: 4.0 mg/kg/injection, schedule: Q01DX005 (ip), vehicle: saline) was 200 % of control, the T/C (dose: 4.9 mg/kg/injection, schedule: Q01DX005 (ip), vehicle: saline with Tween-80) was 211 % of control and 259 % of control and the T/C (dose: 8.0 mg/kg/injection, schedule: Q04DX003 (iv), vehicle: saline with Tween-80) was 160 % of control. The T/C (dose: 8.1 mg/kg/injection, schedule: Q01DX005 (ip), vehicle: saline with Tween-80) was 75 % of control, the T/C (dose: 12.0 mg/kg/injection, schedule: Q04DX002 (ip), vehicle: saline) was 277 % of control and the T/C (dose: 22.5 mg/kg/injection, schedule: Q01DX001 (ip), vehicle: saline with Tween-80) was 62 % of control. The T/C (dose: 37.5 mg/kg/injection, schedule: Q01DX001 (ip), vehicle: saline with Tween-80) was 100 % of control and 58 % of control.

For `Cc1cc(=O)[nH][nH]1`, the T/C (dose: 100.0 mg/kg/injection, schedule: Q04DX002 (ip), vehicle: saline with Tween-80) was 97 % of control, the T/C (dose: 200.0 mg/kg/injection, schedule: Q04DX002 (ip), vehicle: saline with Tween-80) was 100 % of control and the T/C (dose: 400.0 mg/kg/injection, schedule: Q04DX002 (ip), vehicle: saline with Tween-80) was 94 % of control.

With `O=C(CCN1CCCCC1)c1ccccc1` the T/C (dose: 5.0 mg/kg/injection, schedule: Q01DX009 (ip), vehicle: saline) was 100 % of control, the T/C (dose: 10.0 mg/kg/injection, schedule: Q01DX009 (ip), vehicle: saline) was 113 % of control and the T/C (dose: 20.0 mg/kg/injection, schedule: Q01DX009 (ip), vehicle: saline) was 109 % of control. The T/C [8] was 97 % of control.

`CC(C)=Cn1ccccc1=O` was tested, and the T/C (dose: 25.0 mg/kg/injection, schedule: Q01DX001 (ip), vehicle: saline) was 104 % of control and 108 % of control, the T/C (dose: 50.0 mg/kg/injection, schedule: Q01DX001 (ip), vehicle: saline) was 99 % of control and 98 % of control and the T/C (dose: 100.0 mg/kg/injection, schedule: Q01DX001 (ip), vehicle: saline) was 120 % of control and 95 % of control and 98 % of control. For the same compound, the T/C (dose: 200.0 mg/kg/injection, schedule: Q01DX001 (ip), vehicle: saline) was 94 % of control and the T/C (dose: 400.0 mg/kg/injection, schedule: Q01DX001 (ip), vehicle: saline) was 108 % of control.

In the case of `CCCCN1COC2CCCCC21` (stereo not given), the T/C (dose: 25.0 mg/kg/injection, schedule: Q01DX005 (ip), vehicle: saline) was 113 % of control and the T/C (dose: 100.0 mg/kg/injection, schedule: Q01DX005 (ip), vehicle: saline) was 121 % of control.

In the case of `CC1(C)N=C(N)N=C(N)N1c1ccc(OCC(=O)Nc2ccccc2)c(Cl)c1`, the T/C [10] was 100 % of control, the T/C (dose: 25.0 mg/kg/injection, schedule: Q04DX003 (ip), vehicle: saline with Tween-80) was 100 % of control and the T/C [8] was 104 % of control. The T/C (dose: 50.0 mg/kg/injection, schedule: Q04DX003 (ip), vehicle: saline with Tween-80) was 100 % of control, the T/C [9] was 109 % of control and the T/C (dose: 100.0 mg/kg/injection, schedule: Q04DX003 (ip), vehicle: saline with Tween-80) was 113 % of control.
